Reference: patent US20130245275A1, “PHENYL DIAMIDES AND A PHARMACEUTICAL PREPARATION COMPRISING PHENYL DIAMIDES” (Rheinische Friedrich-Wilhelms Universitaet Bonn, priority 2010, published 2013)
Entries after “also recorded” stand apart in the source; their conditions may differ.

Experiments:
[1] = molecular target: T1, sec7-domain of cytohesin-2 (ARNO) (Homo sapiens, UniProt Q99418); test: guanine nucleotide exchange assay (GDP/GTP exchange on [Δ17]ARF1, tryptophan fluorescence); format: biochemical; settings: isolated Sec-7 domain, each experiment at least 8 times, read-out: IC50 values measured for the isolated Sec-7 domain of cytohesin-2
T1 construct: ARNO-Sec7 (amino acids 50-255 of ARNO) were expressed in Escherichia coli; made in house; host or cells: Escherichia coli
T1 sequence (Q99418 50-255): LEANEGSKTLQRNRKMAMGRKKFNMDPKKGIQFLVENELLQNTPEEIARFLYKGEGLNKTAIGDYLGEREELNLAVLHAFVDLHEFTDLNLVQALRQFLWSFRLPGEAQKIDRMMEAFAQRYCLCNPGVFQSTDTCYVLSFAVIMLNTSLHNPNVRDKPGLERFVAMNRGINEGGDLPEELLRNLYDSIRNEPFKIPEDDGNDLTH
Protocol: The inhibition of the exchange activity of the sec7-domain of cytohesin-2 (ARNO) of the phenyl diamides according to formulas (5) to (18) was determined by a guanine nucleotide exchange assay.
The sec7-domain of cytohesin-2 (ARNO) and [Δ17]ARF1, a mutant of the ADP-ribosylation factor (ARF) protein, were subcloned into pET15 vectors (Novagen) as described in Hafner, M. et al. Nature 444, 941-944 (2006). N-terminal truncated [Δ17]ARF1 (amino acids 18-181), lacking the first 17 amino acids and ARNO-Sec7 (amino acids 50-255 of ARNO) were expressed in Escherichia coli and purified by Ni-NTA chromatography (Ni-NTA agarose, Qiagen).
The exchange from […] (GDP) to […] (GTP) induces a conformation change of the ribosylation factor, as a result of which the fluorescence of a tryptophan radical of the protein is increased. GDP/GTP exchange was measured on [Δ17]ARF1 by tryptophan fluorescence because a large increase in intrinsic fluorescence of ARF occurs upon exchange of GDP for GTP. All measurements were performed in PBS (137 mM NaCl, 2.7 mM KCl, 10.2 mM Na2HPO4, 1.8 mM KH2PO4) pH 7.4, 3 mM MgCl2 at 37° C.
[Δ17]ARF1 (1 μM) in PBS without MgCl2 was preincubated with 80 μM GDP in the presence of 2 mM ethylenediaminetetraacetic acid (EDTA) for 15 minutes. The bound GDP was stabilized by addition of MgCl2 at a final concentration of 3 mM and incubation for 5 minutes. For each exchange reaction 250 nM [Δ17]ARF1 was mixed with 10 nM ARNO-Sec7 (total volume 200 μl) in the absence or presence of the phenyl diamides according to formulas (5) to (18). The reaction was started by injection of 50 μM GTP.
The tryptophan fluorescence was measured at excitation and emission wavelength of 280 nm and 340 nm respectively. All fluorescent measurements were performed with a Varioskan microplate reader (Thermo Scientific), in 96-well plates. For analysis all data were fitted by linear regression.
The relative exchange rate was determined by comparing the initial linear rise of the fluorescence signal (exchange rate) in the presence of 2.5 μM of the phenyl diamides according to formulas (5) to (18) with the exchange rate in the presence of the solvent Dimethyl sulfoxide (DMSO), 0.4% end concentration, only. A further control was performed with the control compound according to formula (XH1009) as indicated below: […]
Further, the IC50 value of the inhibition of the sec7-domain of the isolated cytohesin-2 was determined. The IC50 value was determined by plotting the initial linear rise of the fluorescence signal against the added concentrations of the amide. The IC50 value corresponds to the concentration of the phenyl diamides at which the activity of the protein is reduced to half. The lower the IC50 value, the more strongly the phenyl diamide inhibits the sec7-domain.

U87 wt = test: glioblastoma proliferation assay (MTT), U87 wt; format: cell-based; settings: Homo sapiens, U87WT; for inhibition at 0.25 µM: 250 nM, 72 h, vs DMSO control, read-out: inhibitory effect on cell proliferation as compared to control; for IC50: 72 hours, at least 3 times, read-out: IC50 values of the inhibition of the proliferation in the cell line U87 wt
Protocol: (§1) The effect of the phenyl diamides according to formulas (5) to (18) on the proliferation of Glioblastoma cells was tested in two pairs of established human glioblastoma cell lines, Gli36 and U87. Human Gli36 wt, U87 wt and U87 EGFRvIII cells were a gift from Prof. Dr. Andreas H. Jacobs, European Institute for Molecular Imaging, Munster, Germany. The cells were maintained in DMEM (PAA) supplemented with 10% fetal calf serum (FCS, Lonza), 1% Penicillin/Streptomycin (PAA) and 110 μg/ml Sodiumpyruvat (Sigma-Aldrich) and were grown at 37° C., 5% CO2.
(§2) 3000 cells per 96 well were seeded into a clear, flat bottom 96 well plate (TPP). After 24 hours the cells were washed twice in 1×DPBS (PAA) and treated with 250 nM of the phenyl diamides according to formulas (5) to (18) in DMEM (PAA) supplemented with 1% FCS (Lonza), 1% Penicillin/Streptomycin (PAA) and 110 μg/ml Sodiumpyruvat (Sigma-Aldrich). Controls were treated with Dimethyl sulfoxide (DMSO) as solvent in an end concentration of 0.4% (v/v). A further control was performed with the control compound according to formula (XH1009). Medium was changed daily.
(§3) After 72 hours cell proliferation was quantified by using a commercially available 3-(4,5-dimethylthiazol-2-yl)-2,5diphenyltetrazolium bromide (MTT) assay (Cell Titer 96® Non-Radioactive Cell Proliferation Assay, Promega) as described in the manufacture's protocol. Briefly, 15 μl of Dye solution was added directly into the 100 μl media of the cells. After 4 hours incubation at 37° C., 5% CO2, 100 μl solubilization solution was added to solubilize the formazan product and the absorbance at 570 nm was measured in a Varioscan microplate reader (Thermo Scientific). All assays were performed at least in triplicates. For calculation of the relative proliferation rate/cell number the mean absorbance in the solvent DMSO only treated cells was set as 1. Results are given as the mean+/−standard error.
(§4) The FIGS. 2 and 3 show the relative cell numbers in the wild type glioblastoma cell line U87 wt (FIG. 2) and Gli36 wt (FIG. 3) normalized to the DSMO treated control after 72 h incubation with the respective phenyl diamides according to formulas (5) to (18), the DSMO treated control compound determined with a MTT proliferation essay. Data were normalized with the exchange in the solvent (DMSO) only control set as 1 and represent the mean values of duplicates, error bars correspond to standard error of the mean (SEM).
(§5) U87 wt and U87 EGFRvIII cells were a gift from Prof. Dr. Andreas H. Jacobs, European Institute for Molecular Imaging, Münster, Germany. The cells were maintained in DMEM (PAA) supplemented with 1% FCS (Lonza), 1% Penicillin/Streptomycin (PAA) and 110 μg/ml Sodiumpyruvat (Sigma-Aldrich) and were grown at 37° C., 5% CO2.
as §2, with “300” for “3000”, “concentrations ranging from 2.5” for “250”, “nM to 2 μM” for “nM”, “(18) or 5 μM of the control compound (XH1009)” for “(18)”, “(v/v).” for “(v/v). A further control was performed with the control compound according to formula (XH1009).”
(§6) Further, the IC50 values of the inhibition of the proliferation was determined. The IC50 value was determined by plotting the relative cell number against the added concentrations of the amide. The IC50 value corresponds to the concentration of the phenyl diamides at which the proliferation is reduced to half. The lower the IC50 value, the more strongly the phenyl diamide inhibits proliferation.

Gli36 wt = test: glioblastoma proliferation assay (MTT), Gli36 wt; format: cell-based; settings: Homo sapiens, 250 nM, 72 h, vs DMSO control, read-out: inhibitory effect on cell proliferation as compared to control
Protocol: as §1, §2, §3, §4

U87 EGFRvIII = test: glioblastoma proliferation assay (MTT), U87 EGFRvIII; selectivity of the inhibition; format: cell-based, human; settings: for IC50: Homo sapiens, U87 EGFRvIII, 72 hours, MTT, at least 3 times, read-out: IC50 values of the inhibition of the proliferation in the cell line U87 EGFRvIII; for selectivity of the inhibition of the EGFRvIII dependent cell proliferation: U87 EGFRvIII compared with parental U87 wt
Protocol: as §5
as §2, with “300” for “3000”, “concentrations ranging from 2.5” for “250”, “nM to 2 μM” for “nM”, “(18) or 5 μM of the control compound (XH1009)” for “(18)”, “(v/v).” for “(v/v). A further control was performed with the control compound according to formula (XH1009).”
as §3, §6

glioblastoma cells = test: glioblastoma cell proliferation, cell line not stated (summary statements); format: cell-based; settings: read-out: IC50 for the proliferation inhibition

IC50 [1] | IC50 (U87 wt) | IC50 (U87 EGFRvIII) | IC50 (glioblastoma cells) | SMILES | inhibition at 0.25 µM (U87 wt) | inhibition at 0.25 µM (Gli36 wt) | selectivity of the inhibition of the EGFRvIII dependent cell proliferation (U87 EGFRvIII) | inhibition of proliferation of EGFRvIII-cells relative to parental cell line (U87 EGFRvIII; U87 EGFRvIII vs parental U87 wt, FIG. 4B)
1190 nM | 118 nM | 148 nM | – | Cc1ccccc1C(=O)Nc1ccc(NC(=O)c2ccc(C(C)(C)C)cc2)cc1 [formula (8)] | > 50% | > 50% | – | –
4570 nM | 1370 nM | 198 nM | – | CC(C)(C)c1ccc(C(=O)Nc2ccc(NC(=O)c3ccc(Br)o3)cc2)cc1 [formula (7)] | – | – | selectively inhibited the proliferation of the U87 EGFRvIII-containing cell line; also recorded: selectivity for the mutation EGFR variant III (EGFRvIII) | –
2580 nM | 106 nM | 126 nM | – | CC(C)(C)c1ccc(C(=O)Nc2ccc(NC(=O)c3ccccc3Cl)cc2)cc1 [formula (11)] | > 50% | > 50% | – | –
2100 nM | 89 nM | 372 nM | – | CC(C)(C)c1ccc(C(=O)Nc2ccc(NC(=O)c3ccc(F)cc3)cc2)cc1 [formula (9)] | 30 to 50% | 30 to 50% | – | –
1860 nM | 367 nM | 84 nM | – | Cc1ccc(C(=O)Nc2ccc(NC(=O)c3ccc(C(C)(C)C)cc3)cc2)c(C)c1 [formula (12)] | – | – | – | –
1760 nM | – | – | – | Cc1ccc(C(=O)Nc2ccc(NC(=O)c3ccc(C(C)(C)C)cc3)cc2)cc1 [formula (14)] | > 50% | > 50% | – | –
440 nM | 28 nM | 83 nM | – | CC(C)(C)c1ccc(C(=O)Nc2ccc(NC(=O)c3ccc([N+](=O)[O-])cc3)cc2)cc1 [formula (10)] | > 50% | > 50% | selectivety for the inhibition of the parental U87 wt cell line | –
1770 nM | – | – | – | CC(C)(C)c1ccc(C(=O)Nc2ccc(NC(=O)c3ccccc3F)cc2)cc1 [formula (15)] | – | – | – | –
2690 nM | 922 nM | 224 nM | – | CC(C)(C)c1ccc(C(=O)Nc2ccc(NC(=O)c3ccc4c(c3)OCO4)cc2)cc1 [formula (17)] | – | – | selectively inhibited the proliferation of the U87 EGFRvIII-containing cell line; also recorded: selectivity for the mutation EGFR variant III (EGFRvIII) | –
1340 nM | 297 nM | 105 nM | < 2000 nM | CC(C)(C)c1ccc(C(=O)Nc2ccc(NC(=O)c3ccc4c(c3)OCCO4)cc2)cc1 [formula (18)] | – | – | – | –
790 nM | 243 nM | 67 nM | – | CC(C)(C)c1ccc(C(=O)Nc2ccc(NC(=O)c3cccc(Cl)c3)cc2)cc1 [formula (6), N-{4-[(4-tert-butylbenzoyl)amino]phenyl}-3-chlorobenzamide] | 30 to 50% | 30 to 50% | – | –
7270 nM | 2090 nM | 186 nM | – | CC(C)(C)c1ccc(C(=O)Nc2ccc(NC(=O)c3ccncc3)cc2)cc1 [formula (13)] | – | – | selectively inhibits the EGFRvIII expressing U87 cell line; also recorded: selectively inhibited the proliferation of the U87 EGFRvIII-containing cell line; also recorded: selectivity for the mutation EGFR variant III (EGFRvIII) | more than 10 fold
1180 nM | 168 nM | 46 nM | – | CC(C)(C)c1ccc(C(=O)Nc2ccc(NC(=O)c3ccccc3[N+](=O)[O-])cc2)cc1 [formula (5), N-{4-[(4-tert-butylbenzoyl)amino]phenyl}-2-nitrobenzamide] | 30 to 50% | 30 to 50% | – | –
3750 nM | 958 nM | 435 nM | – | CC(C)(C)c1ccc(C(=O)Nc2ccc(NC(=O)/C=C/c3ccco3)cc2)cc1 [formula (16), 4-tert-butyl-N-[4-[[(E)-3-furan-2-ylprop-2-enoyl]amino]phenyl]-benzamide] | – | – | no selectivety | –
